Read-outs that look alike come from different tables or passages of the source.
Columns and labels:
TGR [1] = molecular target: T1, TGR (Schistosoma mansoni, UniProt Q962Y6); assay type: biochemical; details: with TGR; ABTS method, data in supporting information
T1 sequence (Q962Y6 1-598): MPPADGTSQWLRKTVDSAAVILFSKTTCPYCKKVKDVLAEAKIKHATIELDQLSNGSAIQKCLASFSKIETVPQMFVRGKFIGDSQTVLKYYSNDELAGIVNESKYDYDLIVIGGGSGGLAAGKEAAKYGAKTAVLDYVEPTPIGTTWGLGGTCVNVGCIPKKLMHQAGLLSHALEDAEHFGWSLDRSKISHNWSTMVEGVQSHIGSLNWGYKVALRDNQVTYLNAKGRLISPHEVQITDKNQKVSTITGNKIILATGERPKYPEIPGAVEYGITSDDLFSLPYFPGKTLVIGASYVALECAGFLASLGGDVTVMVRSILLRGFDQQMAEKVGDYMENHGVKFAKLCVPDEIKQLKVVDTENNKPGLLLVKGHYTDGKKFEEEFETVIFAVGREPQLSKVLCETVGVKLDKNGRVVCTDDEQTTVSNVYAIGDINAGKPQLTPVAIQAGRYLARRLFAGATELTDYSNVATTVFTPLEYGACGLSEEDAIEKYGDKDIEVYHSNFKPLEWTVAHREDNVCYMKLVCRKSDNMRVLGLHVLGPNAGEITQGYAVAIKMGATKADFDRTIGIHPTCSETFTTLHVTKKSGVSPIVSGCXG

[2] = NO release on reaction with cysteine, chemiluminescent assay; details: for NO donation on reaction with cysteine (in words): chemiluminescent assay
ex vivo worms in culture = experiment: Ex vivo parasite killing, visual examination of cultured worms; set-up: species or system Schistosoma
[3] = human, microsomes, 1 h
Caco-2 permeability = details: human
Microsomal stability = details: human liver microsomes, 60 minutes at 37 °C; for Microsomal stability, NADPH (+): with NADPH; for Microsomal stability, NADPH (−): without NADPH
TGR [4] = molecular target: T1, TGR; details: cited from earlier work
[5] = ABTS oxidation; cited from earlier work
[6] = molecular target: T2, thioredoxin glutathione reductase (TGR) (Schistosoma mansoni, UniProt Q962Y6); assay type: biochemical
T2 sequence (Q962Y6 1-598): T1 sequence (Q962Y6 1-598)

[7] = molecular target: T2, thioredoxin glutathione reductase (TGR); details: cited from earlier work
[8] = 10 μM compound, cultured worms, 4 hr
[9] = 10 μM compound, cultured worms, 48 hr
[10] = 10 μM compound, cultured worms, 24 hr

| SMILES | Ex Vivo Parasite Killing 2 hr (ex vivo worms in culture; 10 μM compound, cultured worms) | Ex Vivo Parasite Killing 4 hr (ex vivo worms in culture; [8]) | Ex Vivo Parasite Killing 48 hr (ex vivo worms in culture; [9]) | Ex Vivo Parasite Killing 72 hr (ex vivo worms in culture; 10 μM compound, cultured worms) | Ex Vivo Parasite Killing 8 hr (ex vivo worms in culture; 10 μM compound, cultured worms) | also measured |
| --- | --- | --- | --- | --- | --- | --- |
| O=C(O)c1c(-c2ccccc2)no[n+]1[O-] [Analogue 9] | – | – | – | – | – | NO release / NO donating ability (in words) (TGR [1]): only modest NO donating abilities |
| [O-][n+]1onc(-c2ccccc2)c1CO [Analogue 7] | – | – | – | – | – | NO release / NO donating ability (in words) (TGR [1]): only a weak NO donor |
| Cc1c(-c2ccccc2)no[n+]1[O-] [Analogue 6] | – | – | – | – | – | NO donation on reaction with cysteine (in words) [2]: nor was 6 capable of NO donation; NO release / NO donating ability (in words) (TGR [1]): inactive as a NO donor |
| N#Cc1c(-c2cccc(-c3no[n+]([O-])c3C#N)c2)no[n+]1[O-] [Analogue 31] | – | – | – | – | – | Ex Vivo Parasite Killing 4 hr (ex vivo worms in culture): curling; Ex Vivo Parasite Killing 24 hr (ex vivo worms in culture): 100%D; Ex Vivo Parasite Killing 48 hr (ex vivo worms in culture): 100%D |
| N#Cc1c(-c2cc(F)cc(-c3no[n+]([O-])c3C#N)c2)no[n+]1[O-] [Analogue 33] | – | – | – | – | – | Microsomal stability, NADPH (+) [3]: 20/51 % remaining; Microsomal stability, NADPH (−) [3]: 20/51 % remaining; NO equivalents produced per equivalent of reagent [2]: 1.55 molar equivalents; Ex Vivo Parasite Killing 48 hr (ex vivo worms in culture): 100%D |
| N#Cc1c(-c2ccco2)no[n+]1[O-] [Analogue 28] | n.e. | n.e. | 100%D | 100%D | – | NO release / NO donating ability (in words) (TGR [1]): good NO release profiles |
| N#Cc1c(-c2cccs2)no[n+]1[O-] [Analogue 29] | n.e. | n.e. | 100%D | 100%D | – | Papp A→B (Caco-2 permeability): 8.4 ×10⁻⁶ cm/s; NO release / NO donating ability (in words) (TGR [1]): good NO release profiles; Microsomal stability, NADPH (+) (Microsomal stability): 1 % remaining; Microsomal stability, NADPH (−) (Microsomal stability): 64 % remaining |
| O=C(c1cccs1)c1no[n+]([O-])c1C(=O)c1cccs1 [Analogue 3, bis(thiophen-2-ylmethanone)-furoxan] | n.e. | n.e. | n.e. | n.e. | n.e. | NO generation in the presence of TGR/NADPH (TGR [4]): not in the presence of TGR/NADPH; NO generation in the presence of cysteine [5]: capable of NO generation in the presence of cysteine; Ex Vivo Parasite Killing 16 hr (ex vivo worms in culture; 10 μM compound, cultured worms): n.e.; Ex Vivo Parasite Killing 24 hr (ex vivo worms in culture; [10]): n.e. |
| N#Cc1c(-c2ccc(F)cc2)no[n+]1[O-] [Analogue 20] | n.e. | n.e. | 100%D | 100%D | – | – |
| N#Cc1c(-c2ccc(-c3ccccc3)cc2)no[n+]1[O-] [Analogue 26] | n.e. | n.e. | – | – | sluggish | Ex Vivo Parasite Killing 16 hr (ex vivo worms in culture; 10 μM compound, cultured worms): sluggish; Ex Vivo Parasite Killing 24 hr (ex vivo worms in culture; [10]): 20%D |
| Cc1ccc(-c2no[n+]([O-])c2C#N)cc1 [Analogue 25] | n.e. | n.e. | – | – | n.e. | – |
| N#Cc1c(-c2cccc(Cl)c2)no[n+]1[O-] [Analogue 15] | n.e. | sluggish | – | 100%D | – | – |
| COc1cc(-c2no[n+]([O-])c2C#N)cc(OC)c1OC [Analogue 22] | n.e. | n.e. | – | – | – | Ex Vivo Parasite Killing 16 hr (ex vivo worms in culture; 10 μM compound, cultured worms): sluggish |
| N#Cc1c(-c2ccc(C(F)(F)F)cc2)no[n+]1[O-] [Analogue 18] | n.e. | n.e. | – | 100%D | – | – |
| O=Cc1c(-c2ccccc2)no[n+]1[O-] [Analogue 8] | – | – | – | – | – | NO release / NO donating ability (in words) (TGR [1]): only modest NO donating abilities |
| N#Cc1c(C(=O)c2cccs2)no[n+]1[O-] [Analogue 30] | n.e. | n.e. | n.e. | n.e. | n.e. | NO donation on reaction with cysteine (in words) [2]: capable of releasing NO; Ex Vivo Parasite Killing 16 hr (ex vivo worms in culture; 10 μM compound, cultured worms): n.e.; Ex Vivo Parasite Killing 24 hr (ex vivo worms in culture; [10]): n.e. |
| N#Cc1c(-c2cccc(Br)c2)no[n+]1[O-] [Analogue 14] | n.e. | n.e. | 100%D | 100%D | – | Ex Vivo Parasite Killing 24 hr (ex vivo worms in culture; [10]): 100%D |
| COc1cccc(-c2no[n+]([O-])c2C#N)c1 [Analogue 23] | n.e. | n.e. | – | – | n.e. | Ex Vivo Parasite Killing 16 hr (ex vivo worms in culture; 10 μM compound, cultured worms): n.e. |
| COc1ccccc1-c1no[n+]([O-])c1C#N [Analogue 21] | n.e. | n.e. | – | – | – | – |
| N#Cc1c(-c2cccc(O)c2)no[n+]1[O-] [Analogue 19] | n.e. | n.e. | n.e. | n.e. | – | Ex Vivo Parasite Killing 16 hr (ex vivo worms in culture; 10 μM compound, cultured worms): n.e.; Ex Vivo Parasite Killing 24 hr (ex vivo worms in culture; [10]): n.e. |
| COc1ccc(-c2no[n+]([O-])c2C#N)cc1 [Analogue 24] | n.e. | n.e. | – | 100%D | n.e. | – |
| N#Cc1c(-c2ccc(O)cc2)no[n+]1[O-] [Analogue 27] | n.e. | n.e. | – | 100%D | sluggish | – |
| N#Cc1c(-c2ccc(F)c(Br)c2)no[n+]1[O-] [Analogue 13] | n.e. | n.e. | – | 100%D | curling | Ex Vivo Parasite Killing 24 hr (ex vivo worms in culture; [10]): 50%D |
| N#Cc1nonc1-c1ccccc1 [Analogue 4] | – | – | – | – | – | TGR inhibition (in words) [6]: nor was either analogue active versus TGR; Ex vivo worm killing (in words) (ex vivo worms in culture): nor was either analogue active versus TGR or an effective ex vivo worm killing agent; NO release / NO donating ability (in words) (TGR [1]): no appreciable NO release with TGR |
| N#Cc1c(-c2cccc(C(F)(F)F)c2)no[n+]1[O-] [Analogue 12] | n.e. | n.e. | 100%D | 100%D | – | – |
| N#Cc1c(-c2cccc([N+](=O)[O-])c2)no[n+]1[O-] [Analogue 11] | n.e. | n.e. | – | – | n.e. | Ex Vivo Parasite Killing 16 hr (ex vivo worms in culture; 10 μM compound, cultured worms): sluggish |
| CC(=O)OC[C@H]1O[C@@H]([S-])[C@H](OC(C)=O)[C@@H](OC(C)=O)[C@@H]1OC(C)=O.CCP(CC)CC.[Au+] [auranofin] | – | – | – | – | – | TGR inhibition (in words) [7]: potent inhibitor of TGR |
| N#Cc1c(-c2ccc(Cl)cc2)no[n+]1[O-] [Analogue 17] | n.e. | n.e. | – | 100%D | n.e. | Ex Vivo Parasite Killing 16 hr (ex vivo worms in culture; 10 μM compound, cultured worms): sluggish |
| N#Cc1no[n+]([O-])c1-c1ccccc1 [Analogue 5] | – | – | – | – | – | TGR inhibition (in words) [6]: nor was either analogue active versus TGR; Ex vivo worm killing (in words) (ex vivo worms in culture): nor was either analogue active versus TGR or an effective ex vivo worm killing agent; NO release / NO donating ability (in words) (TGR [1]): no appreciable NO release with TGR |
| N#Cc1c(-c2ccc(Br)cc2)no[n+]1[O-] [Analogue 16] | n.e. | sluggish | 100%D | 100%D | – | Ex Vivo Parasite Killing 24 hr (ex vivo worms in culture; [10]): 100%D; Microsomal stability, NADPH (+) (Microsomal stability): 10 % remaining; Microsomal stability, NADPH (−) (Microsomal stability): 67 % remaining |

Source: paper PMC2772170 (Journal of medicinal chemistry, 2009)
